According to PMC6273209, “Evaluation of the Enantiomer Specific Biokinetics and Radiation Doses of [^18F]Fluspidine—A New Tracer in Clinical Translation for Imaging of σ1 Receptors” (Molecules, 2016):
Values joined by “and” are separate entries in the source; they are usually repeats but may differ in a detail not shown here. Identical values can stand only once.

Legend:
[1] = Human dosimetry estimation from small animal PET/MRI (imaging method); format: in vivo, CD-1 mice; details: for OD Adrenals / OD Brain / OD Breasts / OD Gallbladder Wall / OD Heart Wall / OD Kidneys / OD LLI Wall / OD Liver / OD Lungs / OD Muscle / OD Osteogenic Cells / OD Ovaries / OD Pancreas / OD Red Marrow / OD Skin / OD Small Intestine / OD Spleen / OD Stomach Wall / OD Testes / OD Thymus / OD Thyroid / OD Total Body / OD ULI Wall / OD Urinary Bladder Wall / OD Uterus / ED Contr. Adrenals / ED Contr. Brain / ED Contr. Breasts / ED Contr. Gallbladder Wall / ED Contr. Heart Wall / ED Contr. Kidneys / ED Contr. LLI Wall / ED Contr. Liver / ED Contr. Lungs / ED Contr. Muscle / ED Contr. Osteogenic Cells / ED Contr. Ovaries / ED Contr. Pancreas / ED Contr. Red Marrow / ED Contr. Skin / ED Contr. Small Intestine / ED Contr. Spleen / ED Contr. Stomach Wall / ED Contr. Testes / ED Contr. Thymus / ED Contr. Thyroid / ED Contr. Total Body / ED Contr. ULI Wall / ED Contr. Urinary Bladder Wall / ED Contr. Uterus: mouse PET/MRI; for OD Adrenals / OD Brain / OD Breasts / OD Gallbladder Wall / OD Heart Wall / OD Kidneys / OD LLI Wall / OD Liver / OD Lungs / OD Muscle / OD Osteogenic Cells / OD Ovaries / OD Pancreas / OD Red Marrow / OD Skin / OD Small Intestine / OD Spleen / OD Stomach Wall / OD Testes / OD Thymus / OD Thyroid / OD Total Body / OD ULI Wall / OD Urinary Bladder Wall / OD Uterus: scaled to human adult male model; for ED Contr. Adrenals / ED Contr. Brain / ED Contr. Breasts / ED Contr. Gallbladder Wall / ED Contr. Heart Wall / ED Contr. Kidneys / ED Contr. LLI Wall / ED Contr. Liver / ED Contr. Lungs / ED Contr. Muscle / ED Contr. Osteogenic Cells / ED Contr. Ovaries / ED Contr. Pancreas / ED Contr. Red Marrow / ED Contr. Skin / ED Contr. Small Intestine / ED Contr. Spleen / ED Contr. Stomach Wall / ED Contr. Testes / ED Contr. Thymus / ED Contr. Thyroid / ED Contr. Total Body / ED Contr. ULI Wall / ED Contr. Urinary Bladder Wall / ED Contr. Uterus / ED: ICRP 103 weighting; for ED ICRP 60 / ED: mouse, imaging (PET/MRI); for ED ICRP 60: ICRP 60 weighting
Protocol: The animals were initially anesthetized with 4% of isoflurane and were positioned prone in a small-animal PET/MRI system (nanoScan® PET/MRI, MEDISO, Budapest, Hungary) equipped with respiratory monitoring, heated mouse bed (37 °C), and inhalation anesthesia (1.8% isoflurane in a 60% oxygen/40% air gas mixture at 250 mL/min airflow; Anaesthesia Unit U-410, agntho’s, Lidingö, Sweden; Gas blender 100 series, MCQ Instruments, Rome, Italy). Prior to the PET scan, a scout image MR sequence was done to outline the animal dimensions. Female CD-1 mice (age: 12 weeks, weight: 30.9 ± 1.3 g) were injected via the tail vein with (S)-(−)-[^18F]fluspidine (13.2 ± 3.0 MBq; n = 3) or (R)-(+)-[^18F]fluspidine (12.6 ± 1.4 MBq; n = 3) in a volume of 200 μL saline. The injected dose was calculated by the difference of the radioactivity in the syringe before and after the injection. A dynamic whole body animal PET scan of 105 min length (Figure 1) was started simultaneously. This scanning time was chosen to represent the protocol of the human study (after time extrapolation according to Equation (2)) based on a priori biokinetic information from the ex vivo investigation. Following the PET scan, a 20 min T1-weighted whole body MR scan (gradient echo sequence, TR = 20 ms; TE = 3.2 ms) was performed for anatomical orientation after co-registration and attenuation correction at the reconstruction step.
The PET images were iteratively (ordered-subsets expectation maximization, OSEM) reconstructed (preclinical: 4 iterations, 6 subsets; clinical: 4 iterations, 8 subsets) and corrected for decay, randoms, scatter, and dead time, μ-maps for attenuation correction of PET-emission data were derived from the CT or MR [49] structural data, respectively. The PET data were re-binned into 10 time frames (preclinical: 4 × 5 min, 1 × 10 min, and 5 × 15 min; clinical: 4 × 12 min, 3 × 16 min, 1 × 32 min, 1 × 40 min, and 1 × 48 min), and the reconstructed PET/MRI and PET/CT images were co-registered manually with ROVER (ABX, advanced chemical compounds, Radeberg, Germany, version 2.1.17). Quantitative evaluation was performed by drawing volumes of interest (VOI) for brain, gallbladder, large intestine, small intestine, stomach, heart, kidneys, liver, lungs, pancreas, red marrow (backbone, pelvis, sternum), spleen, thyroid, testes, and urinary bladder (Figure S4). The PET derived biokinetic data is expressed as percentage of injected activity (dose) per cubic centimeter (%ID/cm^3).
For human dosimetry estimation from animal biodistribution and PET/MR imaging, animal organ masses and time scale was extrapolated to human magnitudes. At first, the organ-specific animal %ID data were extrapolated to the human scale with the equation (1) %ID/organhuman=%ID/gmouse · morganhuman · mmouse/mhuman with the fraction of the injected activity in the corresponding human organ = %ID/organhuman , the fraction of injected activity per gram animal organ tissue = %ID/gmouse and morganhuman the mass of the corresponding human organ. At second, a time scale extrapolation is needed due to differences in the metabolic rate using the equation (2) thuman=tmouse{mhuman/mmouse}^0.25 including the human time scale = thuman , the animal time scale = tmouse and the ratio of animal and human body weights = mmouse/mhuman .
The human dosimetry estimation was performed with the data extrapolated as well as the genuine human data using OLINDA/EXM software. The time-activity curves were estimated by exponential fitting and calculating the time integral, which equals the number of disintegrations (NODs) per organ during the observation period normalized to 1 Becquerel administered activity dose. […] Therefore, activity data of the urinary bladder was derived from the image for each time point. In contrast, for humans the activity concentration data of the urinary bladder was obtained in a more direct approach. […]

σ1 receptors = system: σ1 receptors; parameters: method as in PMID 25071097; details: σ1-rich areas of the porcine brain; cited from earlier work

## [18F]CC[C@H]1OC2(CCN(Cc3ccccc3)CC2)c2ccccc21 [(R)-(+)-[^18F]fluspidine]
[1]; mice, scaled to human
  OD values of (R)-(+)-enantiomer relative to (S)-(−)-enantiomer: up to 1.3 fold
[1]
  OD Adrenals: 11.00 μSv/MBq
  OD Brain: 13.20 μSv/MBq
  OD Breasts: 6.19 μSv/MBq
  OD Gallbladder Wall: 30.10 μSv/MBq
  OD Heart Wall: 10.50 μSv/MBq
  OD Kidneys: 26.90 μSv/MBq
  OD LLI Wall: 13.80 μSv/MBq
  OD Liver: 26.10 μSv/MBq
  OD Lungs: 10.80 μSv/MBq
  OD Muscle: 7.86 μSv/MBq
  OD Osteogenic Cells: 14.00 μSv/MBq
  OD Ovaries: 11.90 μSv/MBq
  OD Pancreas: 24.80 μSv/MBq
  OD Red Marrow: 12.80 μSv/MBq
  OD Skin: 5.82 μSv/MBq
  OD Small Intestine: 22.60 μSv/MBq
  OD Spleen: 31.80 μSv/MBq
  OD Stomach Wall: 12.70 μSv/MBq
  OD Testes: 7.63 μSv/MBq
  OD Thymus: 7.52 μSv/MBq
  OD Thyroid: 10.10 μSv/MBq
  OD Total Body: 9.13 μSv/MBq
  OD ULI Wall: 25.60 μSv/MBq
  OD Urinary Bladder Wall: 55.70 μSv/MBq
  OD Uterus: 13.00 μSv/MBq
[1]; scaled to human
  ED Contr. Adrenals: 0.09 μSv/MBq
  ED Contr. Brain: 0.13 μSv/MBq
  ED Contr. Breasts: 0.74 μSv/MBq
  ED Contr. Gallbladder Wall: 0.26 μSv/MBq
  ED Contr. Heart Wall: 0.09 μSv/MBq
  ED Contr. Kidneys: 0.23 μSv/MBq
  ED Contr. LLI Wall: 0.83 μSv/MBq
  ED Contr. Liver: 1.04 μSv/MBq
  ED Contr. Lungs: 1.30 μSv/MBq
  ED Contr. Muscle: 0.07 μSv/MBq
  ED Contr. Osteogenic Cells: 0.14 μSv/MBq
  ED Contr. Ovaries: 0.95 μSv/MBq
  ED Contr. Pancreas: 0.21 μSv/MBq
  ED Contr. Red Marrow: 1.53 μSv/MBq
  ED Contr. Skin: 0.06 μSv/MBq
  ED Contr. Small Intestine: 0.20 μSv/MBq
  ED Contr. Spleen: 0.27 μSv/MBq
  ED Contr. Stomach Wall: 1.52 μSv/MBq
  ED Contr. Testes: 0.00 μSv/MBq
  ED Contr. Thymus: 0.06 μSv/MBq
  ED Contr. Thyroid: 0.41 μSv/MBq
  ED Contr. Total Body: 0.00 μSv/MBq
  ED Contr. ULI Wall: 1.54 μSv/MBq
  ED Contr. Urinary Bladder Wall: 2.23 μSv/MBq
  ED Contr. Uterus: 0.11 μSv/MBq
  ED ICRP 60: 15.2 μSv/MBq
  ED: 14.0 μSv/MBq
[1]; scaled to human, listed as (R)-(+)-[^18F]Fluspidine
  ED: 14.0 μSv/MBq
σ1 receptors
  binding potential (BPnd), fold higher in comparison to (S)-(−)-[^18F]fluspidine: 5- to 10 fold

## FCC[C@@H]1OC2(CCN(Cc3ccccc3)CC2)c2ccccc21 [(S)-(−)-[^18F]fluspidine]
[1]
  OD Adrenals: 10.50 μSv/MBq
  OD Brain: 10.10 μSv/MBq
  OD Breasts: 5.93 μSv/MBq
  OD Gallbladder Wall: 25.60 μSv/MBq
  OD Heart Wall: 9.85 μSv/MBq
  OD Kidneys: 37.60 μSv/MBq
  OD LLI Wall: 14.00 μSv/MBq
  OD Liver: 25.00 μSv/MBq
  OD Lungs: 10.40 μSv/MBq
  OD Muscle: 7.57 μSv/MBq
  OD Osteogenic Cells: 12.70 μSv/MBq
  OD Ovaries: 11.50 μSv/MBq
  OD Pancreas: 10.90 μSv/MBq
  OD Red Marrow: 10.80 μSv/MBq
  OD Skin: 5.61 μSv/MBq
  OD Small Intestine: 23.10 μSv/MBq
  OD Spleen: 26.10 μSv/MBq
  OD Stomach Wall: 10.50 μSv/MBq
  OD Testes: 7.46 μSv/MBq
  OD Thymus: 7.19 μSv/MBq
  OD Thyroid: 7.61 μSv/MBq
  OD Total Body: 8.68 μSv/MBq
  OD ULI Wall: 20.50 μSv/MBq
  OD Urinary Bladder Wall: 58.00 μSv/MBq
  OD Uterus: 12.80 μSv/MBq
[1]; scaled to human
  ED Contr. Adrenals: 0.09 μSv/MBq
  ED Contr. Brain: 0.10 μSv/MBq
  ED Contr. Breasts: 0.71 μSv/MBq
  ED Contr. Gallbladder Wall: 0.22 μSv/MBq
  ED Contr. Heart Wall: 0.08 μSv/MBq
  ED Contr. Kidneys: 0.32 μSv/MBq
  ED Contr. LLI Wall: 0.84 μSv/MBq
  ED Contr. Liver: 1.00 μSv/MBq
  ED Contr. Lungs: 1.25 μSv/MBq
  ED Contr. Muscle: 0.07 μSv/MBq
  ED Contr. Osteogenic Cells: 0.13 μSv/MBq
  ED Contr. Ovaries: 0.92 μSv/MBq
  ED Contr. Pancreas: 0.09 μSv/MBq
  ED Contr. Red Marrow: 1.30 μSv/MBq
  ED Contr. Skin: 0.06 μSv/MBq
  ED Contr. Small Intestine: 0.20 μSv/MBq
  ED Contr. Spleen: 0.22 μSv/MBq
  ED Contr. Stomach Wall: 1.26 μSv/MBq
  ED Contr. Testes: 0.00 μSv/MBq
  ED Contr. Thymus: 0.06 μSv/MBq
  ED Contr. Thyroid: 0.30 μSv/MBq
  ED Contr. Total Body: 0.00 μSv/MBq
  ED Contr. ULI Wall: 1.23 μSv/MBq
  ED Contr. Urinary Bladder Wall: 2.32 μSv/MBq
  ED Contr. Uterus: 0.11 μSv/MBq
  ED ICRP 60: 14.8 μSv/MBq
  ED: 12.9 ± 0.4 μSv/MBq and 12.9 μSv/MBq
[1]; scaled to human, listed as (S)-(−)-[^18F]Fluspidine
  ED: 12.9 μSv/MBq
